{"source": "patent US20230137849A1", "about": "“USE OF A COMPOUND OF THE DIURETICS CLASS FOR TREATING CANCER” (AZELEAD, priority 2017, published 2023)", "key": {"[1]": {"system": "hematopoietic stem cells CD41:GFP accumulated in the AGM", "assay": "Zebrafish embryo test: HSC accumulated in the AGM (initiation of the metastatic process)", "type": "in vivo", "conditions": "althiazide 10 μM (FIG. 2; b187 prints 10 μl), embryos 25 hpf treated 24 h, vs DMSO", "excerpt": "A method for determining whether a molecule is capable of treating cancer in the pre-metastatic state has been described in international application WO 2011/007259. This method consists in isolating molecules capable of inhibiting the emergence of hematopoietic stem cells from the floor of the aorta without cell division, but by endothelial-to-hematopoietic transition. This emergence involves the loss of cell polarity of emerging cells, the loss of cellular junctions with these neighboring cells and the acquisition of migratory properties. This model is used because it mimics each stage of the epithelial-mesenchymal transition, the first stage of cancer metastasis. The endothelial-to-hematopoietic transition takes place in a region of the embryo called Aorta-Gonad-Mesonephros (AGM).\nIn order to evaluate the inhibition of the endothelial-to-hematopoietic transition, transgenic CD41:GFP (green fluorescent protein) embryos are used. HSCs express GFP under the control of the CD41 promoter, which allows them to be monitored in vivo under a fluorescence microscope. The read-out is the number of hematopoietic stem cells CD41:GFP accumulated in the AGM (mimicking the initiation of the metastatic process) and/or in the CHT of the zebrafish embryo (mimicking the progression of the metastatic process). […]"}, "MDA-MB-231 cells": {"system": "MDA-MB-231 cells", "assay": "Migration test on MDA-MB-231 cells (scratch test)", "type": "cell-based, human", "conditions": "10, 50 and 100 μM, 18 h migration, FIG. 10", "experimental": "Cell migration assays on the MDA-MB-231 cell line are performed in vitro in 96-well plates. The MDA-MB-231 cells were seeded at the density of 50000 cells per well, to form a monolayer. The cells are maintained in a DMEM culture medium supplemented with 0.2% fetal calf serum and incubated at 37° C., 5% CO2 and 1% O2 for 24 hours. The cell monolayer is injured with a pipette tip. The cells are then rinsed with PB S to remove the cells in suspension and the different treatments are added, as well as DMEM supplemented with 10% FCS. The cells are incubated for 18 hours at 37° C., 5% CO2 and 20% O2.\nA first series of images of each well (center of the well) was carried out at the beginning of the experiment (t=0) and after 18 hours of migration (t=18) using a 4× objective Nikon microscope. The images were analyzed using ImageJ software (National Institutes of Health, USA).\nThe treatments were carried out in triplicate and the manipulation was carried out 3 times. […]\nA first series of images of each well (center of the well) is performed at the beginning of the experiment (t=0) and after 18 h of migration (t=18) using a Nikon microscope −4× lens. The images were analyzed using Image J software (National Institute of Health, USA)"}, "SNAIL": {"system": "SNAIL", "assay": "q-RT-PCR expression of EMT markers in MDA-MB-231 cells under hypoxia: SNAIL", "type": "cell-based, human", "conditions": "althiazide 100 μM, hypoxic conditions (1% O2), vs control, FIG. 11", "experimental": "(§1) The cell cultures are carried out on human breast cancer epithelial cell lines MDA-MB-231 (HTB-26™), resulting from metastases present in a pleural effusion of a patient with a mammary adenocarcinoma. This line is used as a triple negative cancer cell model (no expression of ER-type nuclear estrogen receptors, nuclear progesterone receptors or overexpression of the oncogene encoding HER2 protein (Human Epidermal Growth factor Receptor-2).\n(§2) The cells were cultured in DMEM medium (Eurobio, Fance) supplemented with 10% fetal calf serum (FCS) (Eurobio, Fance) at 37° C., 5% CO2. The medium was changed every 3 days.\n(§3) The cells were placed in a controlled atmosphere at 1% oxygen 24 hours before the application of the different treatments.\n(§4) The expression of the mRNAs is measured by the q-RT-PCR method. The cells were seeded at the density of 500,000 cells/well in 6-well plates. After 24 hours at 37° C., 5% CO2 and 1% O2, the medium was renewed and added the various treatments. RNA was isolated using TRI Reagent® (sigma), assayed and retro-transcribed into complementary DNA using the PrimeScript RT Reagent Kit (Takara). The expression levels of the mRNA of the genes of interest were determined by quantitative PCR (LightCycler® 480 Instrument II) with the primers listed in Table 2: […]\n(§5) The results are calculated using the Delta Delta Ct (Δ ΔCt) method."}, "E-CADHERIN": {"system": "E-CADHERIN", "assay": "q-RT-PCR expression of EMT markers in MDA-MB-231 cells under hypoxia: E-CADHERIN", "type": "cell-based, human", "conditions": "althiazide 100 μM, hypoxic conditions (1% O2), vs control, FIG. 11", "experimental": "as §1, §2, §3, §4, §5"}}}
{"smiles": "C=CCSCC1Nc2cc(Cl)c(S(N)(=O)=O)cc2S(=O)(=O)N1", "note": "(racemic) [althiazide]", "values": [{"measurement": "number of HSC accumulated in the AGM compared with reference embryos; local migration of HSC", "setting": "[1]", "result": "greater"}, {"measurement": "number of HSC accumulated in the AGM compared with reference embryos; local migration of HSC", "setting": "[1]; listed as thiazide", "result": "reduction of the junction loss and the local migration of HSC"}, {"measurement": "decrease of the migration", "setting": "MDA-MB-231 cells", "result": "~50", "unit": "%"}, {"measurement": "change in expression of SNAIL", "setting": "SNAIL", "result": "−19", "unit": "%"}, {"measurement": "increase in E-CADHERIN expression", "setting": "E-CADHERIN", "result": 73, "unit": "%"}]}
